In the assay the target is T1, Thymidine phosphorylase (Homo sapiens, UniProt P19971).
T1 sequence (P19971 whole entry): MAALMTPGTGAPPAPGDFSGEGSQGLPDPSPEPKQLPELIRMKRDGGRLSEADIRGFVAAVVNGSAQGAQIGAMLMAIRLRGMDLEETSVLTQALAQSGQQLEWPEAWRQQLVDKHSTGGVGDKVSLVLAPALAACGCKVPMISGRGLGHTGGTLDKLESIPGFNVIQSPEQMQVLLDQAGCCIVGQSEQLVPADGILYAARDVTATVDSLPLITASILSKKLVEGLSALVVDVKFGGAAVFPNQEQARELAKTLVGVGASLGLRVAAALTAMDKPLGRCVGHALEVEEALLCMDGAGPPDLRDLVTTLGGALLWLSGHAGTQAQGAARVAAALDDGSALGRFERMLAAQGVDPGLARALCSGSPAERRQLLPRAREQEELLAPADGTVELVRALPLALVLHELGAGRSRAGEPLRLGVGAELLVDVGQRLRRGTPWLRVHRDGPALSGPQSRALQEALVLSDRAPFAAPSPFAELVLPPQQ

One may read the IC50 as the point on the concentration scale where inhibition reaches its midpoint.

Each structure is given as a SMILES string.

Description: Inhibition of human TPase in presence of 100 uM thymidine

Consider `CNC(=O)c1ncn([C@@H]2O[C@H](COC(c3ccccc3)(c3ccccc3)c3ccccc3)[C@@H](O)[C@H]2O)c1N`, for which half-maximal inhibition (IC50) was put at 137 µM.

`OC[C@@H](COC(c1ccccc1)(c1ccccc1)c1ccccc1)O[C@H](CO)n1cnc2c(O)ncnc21` had an IC50 of more than 200 µM.

Consider `NC(=O)c1ncn([C@@H]2O[C@H](COC(c3ccccc3)(c3ccccc3)c3ccccc3)[C@@H](O)[C@H]2O)c1N`, for which the IC50 was not below 40 µM.

On to `COCCOCn1cnc2c(ncn2[C@@H]2O[C@H](COC(c3ccccc3)(c3ccccc3)c3ccccc3)[C@@H](OC(C)=O)[C@H]2OC(C)=O)c1=O`, for which the IC50 is more than 20 µM.

As to `COCCOCNC(=O)c1ncn([C@@H]2O[C@H](COC(c3ccccc3)(c3ccccc3)c3ccccc3)[C@@H](O)[C@H]2O)c1N`, the IC50 was more than 75 µM.

Turning to `COCCOCn1cnc2c(ncn2[C@@H]2O[C@H](COC(c3ccccc3)(c3ccccc3)c3ccccc3)[C@@H](O)[C@H]2O)c1=O`, the IC50 is more than 100 µM.

In turn, `O=c1c2ncn([C@@H]3O[C@H](COCc4ccccc4)[C@@H](O)[C@H]3O)c2ncn1Cc1ccccc1` displayed a concentration for half-maximal inhibition (IC50) of more than 200 µM.

(Values after ChEMBL document CHEMBL1146883, “5'-O-tritylinosine and analogues as allosteric inhibitors of human thymidine phosphorylase” (J Med Chem, 2006).)
